Values belong to the compound of their own block, whether it stands above or below them.
Tests used:
[1] = target: Aminopeptidase N (Rattus norvegicus) (UniProt P15684); experiment: Compound was evaluated for its inhibitory potency against purified membrane bound rat brain Aminopeptidase
[2] = target: T1, Aminopeptidase B (Rattus norvegicus, UniProt O09175); experiment: Compound was evaluated for its inhibitory potency against purified membrane bound rat brain Aminopeptidase B (AP-B) using L-lysine-beta napthylamide as substrate
T1 sequence (O09175 whole entry): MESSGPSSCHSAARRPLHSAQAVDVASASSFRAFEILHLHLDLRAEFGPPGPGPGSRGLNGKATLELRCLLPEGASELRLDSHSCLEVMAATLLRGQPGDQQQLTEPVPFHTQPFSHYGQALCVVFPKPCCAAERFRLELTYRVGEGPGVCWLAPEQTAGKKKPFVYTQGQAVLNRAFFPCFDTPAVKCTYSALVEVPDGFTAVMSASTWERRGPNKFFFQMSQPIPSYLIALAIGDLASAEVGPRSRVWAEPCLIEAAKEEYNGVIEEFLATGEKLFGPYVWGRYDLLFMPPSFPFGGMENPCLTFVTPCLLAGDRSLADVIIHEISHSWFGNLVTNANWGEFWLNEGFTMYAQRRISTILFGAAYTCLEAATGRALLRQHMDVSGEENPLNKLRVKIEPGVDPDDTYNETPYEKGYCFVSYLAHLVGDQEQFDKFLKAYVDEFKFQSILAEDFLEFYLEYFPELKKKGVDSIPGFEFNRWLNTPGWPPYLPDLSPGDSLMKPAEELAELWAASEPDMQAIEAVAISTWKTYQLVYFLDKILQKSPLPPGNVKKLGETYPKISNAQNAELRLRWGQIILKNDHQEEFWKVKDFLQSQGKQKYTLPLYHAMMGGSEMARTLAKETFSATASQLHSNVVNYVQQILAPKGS

[3] = target: T2, Aminopeptidase N (Rattus norvegicus, UniProt P15684); experiment: ChEBML_35366
T2 sequence (P15684 whole entry): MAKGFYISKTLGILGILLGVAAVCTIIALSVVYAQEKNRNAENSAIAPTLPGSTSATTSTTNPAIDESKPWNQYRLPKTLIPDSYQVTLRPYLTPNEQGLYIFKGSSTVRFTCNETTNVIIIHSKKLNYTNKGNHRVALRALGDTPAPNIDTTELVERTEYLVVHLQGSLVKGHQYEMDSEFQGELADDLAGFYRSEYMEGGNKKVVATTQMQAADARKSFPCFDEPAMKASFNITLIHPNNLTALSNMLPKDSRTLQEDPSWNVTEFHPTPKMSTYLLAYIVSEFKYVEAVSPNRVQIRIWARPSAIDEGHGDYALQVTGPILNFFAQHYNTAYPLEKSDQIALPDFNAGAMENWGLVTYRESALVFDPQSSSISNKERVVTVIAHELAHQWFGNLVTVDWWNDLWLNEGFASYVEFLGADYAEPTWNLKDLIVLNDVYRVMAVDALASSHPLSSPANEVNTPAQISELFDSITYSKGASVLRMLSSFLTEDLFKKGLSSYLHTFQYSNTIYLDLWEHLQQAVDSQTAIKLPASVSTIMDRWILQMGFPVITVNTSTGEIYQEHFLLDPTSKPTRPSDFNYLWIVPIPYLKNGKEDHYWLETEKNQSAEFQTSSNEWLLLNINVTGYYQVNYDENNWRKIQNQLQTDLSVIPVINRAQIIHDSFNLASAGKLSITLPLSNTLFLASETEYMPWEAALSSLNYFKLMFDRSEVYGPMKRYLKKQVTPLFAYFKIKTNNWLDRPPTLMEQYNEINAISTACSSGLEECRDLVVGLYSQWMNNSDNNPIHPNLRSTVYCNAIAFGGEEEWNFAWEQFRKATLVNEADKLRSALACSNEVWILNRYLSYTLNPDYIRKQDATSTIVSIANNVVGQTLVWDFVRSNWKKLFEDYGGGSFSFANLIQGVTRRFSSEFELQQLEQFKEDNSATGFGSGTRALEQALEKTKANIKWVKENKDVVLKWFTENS
Protocol: Compound was evaluated for its inhibitory potency against purified membrane bound rat brain Aminopeptidase M (AP-M) using [3H]Leu-enkephalin as substrate

[4] = target: T1, Aminopeptidase B; experiment: ChEBML_35343
Protocol: Compound was evaluated for its inhibitory potency against purified membrane bound rat brain Aminopeptidase B using L-lysine-beta napthylamide as substrate

IC50 [1]: 2.01 µM
SMILES: COC(=O)[C@H](CC(C)C)NC(=O)[C@@H](O)[C@H](N)CCCCN

IC50 [2]: 500 µM
IC50 [3]: > 1000 µM
SMILES: COC(=O)[C@H](CC(C)C)NC(=O)[C@H](O)[C@@H](N)CCCCN

IC50 [4]: 500 µM
SMILES: COC(=O)[C@H](Cc1c[nH]c2ccccc12)NC(=O)[C@H](O)[C@@H](N)CCCCN

Source: BindingDB's records for doi:10.1021/jm00083a013 (1992)
